Measured values as given in patent publication US12421269B2, “SGLT2/DPP4 inhibitor and application thereof” (CGeneTech (Suzhou, China) CO., Ltd., priority 2019, dated 2025).
Marks after values point to notes of the source that are not given here.

Columns and labels:
[1] = biological target: T1, Human-SGLT1 (Homo sapiens, UniProt P13866); assay: SGLT1 glucose transport assay ([14C]-labeled glucose uptake); assay type: cell-based; conditions: cells stably expressing Human-SGLT1, 37° C., 2 hours
T1 sequence (P13866 1-664): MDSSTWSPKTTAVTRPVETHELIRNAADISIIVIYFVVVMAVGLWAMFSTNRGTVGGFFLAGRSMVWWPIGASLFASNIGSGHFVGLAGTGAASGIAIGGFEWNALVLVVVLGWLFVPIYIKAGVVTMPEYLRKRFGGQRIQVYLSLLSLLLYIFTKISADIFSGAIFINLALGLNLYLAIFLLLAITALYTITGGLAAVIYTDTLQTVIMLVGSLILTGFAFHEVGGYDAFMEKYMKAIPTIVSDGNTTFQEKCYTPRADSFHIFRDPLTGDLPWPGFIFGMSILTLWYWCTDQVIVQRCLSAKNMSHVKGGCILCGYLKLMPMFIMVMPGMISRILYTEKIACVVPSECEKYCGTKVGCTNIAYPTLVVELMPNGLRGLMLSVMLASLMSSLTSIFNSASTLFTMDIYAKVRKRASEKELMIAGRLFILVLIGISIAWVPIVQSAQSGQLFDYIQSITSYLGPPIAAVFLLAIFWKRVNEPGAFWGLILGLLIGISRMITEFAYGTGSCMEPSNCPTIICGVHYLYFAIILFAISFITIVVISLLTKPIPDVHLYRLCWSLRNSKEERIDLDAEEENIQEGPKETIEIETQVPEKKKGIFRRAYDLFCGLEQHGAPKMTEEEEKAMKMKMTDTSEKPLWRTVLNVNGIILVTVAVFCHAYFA
Protocol: To test the effect of compounds on the glucose transport activity of SGLT1 transporters by measuring the amount of [^14C]-labeled glucose entering highly expressed Human-SGLT1 cells.
The cells stably expressing Human-SGLT1 used for the experiments were constructed by WuXi AppTec Shanghai. The SGLT1 cells were plated in Cytostar-T (PerkinElmer) 96-well cell culture plates and cultured overnight at 5% CO2, 37° C.
(§1) Experimental buffer: 10 mM 4-hydroxyethylpiperazine ethanesulfonic acid (HEPES), 1.2 mM magnesium chloride (MgCl2), 4.7 mM potassium chloride (KCl), 2.2 mM calcium chloride (CaCl2) and 120 mM sodium chloride (NaCl).
The compounds were diluted with 100% dimethyl sulfoxide (DMSO) at a starting concentration of 1 mM, 8 points of 5-fold serial gradient dilution was made.
3 μM [^14C]-labeled methyl α-D-glucopyranoside (Methyl a-D-glucopyranosid) was prepared with experimental buffer.
Cells were treated with 49 μL of experimental buffer, 1 μL of gradient-diluted compound and 50 μL of 3 μM [^14C]-isotope-labeled glucose solution at 37° C. for 2 hours.
Readings were taken with an isotope detector (Micro beta Reader).
The data were calculated by GraphPad Prism 5.0 software using the formula: log(inhibitor) vs. response—Variable slope to obtain the IC50 values of the tested compounds, and the experimental results are shown in Table 5.

[2] = biological target: T2, Human-SGLT2 (Homo sapiens, UniProt P31639); assay: SGLT2 glucose transport assay ([14C]-labeled glucose uptake); assay type: cell-based; conditions: cells stably expressing Human-SGLT2, 37° C., 2 hours
T2 sequence (P31639 1-672): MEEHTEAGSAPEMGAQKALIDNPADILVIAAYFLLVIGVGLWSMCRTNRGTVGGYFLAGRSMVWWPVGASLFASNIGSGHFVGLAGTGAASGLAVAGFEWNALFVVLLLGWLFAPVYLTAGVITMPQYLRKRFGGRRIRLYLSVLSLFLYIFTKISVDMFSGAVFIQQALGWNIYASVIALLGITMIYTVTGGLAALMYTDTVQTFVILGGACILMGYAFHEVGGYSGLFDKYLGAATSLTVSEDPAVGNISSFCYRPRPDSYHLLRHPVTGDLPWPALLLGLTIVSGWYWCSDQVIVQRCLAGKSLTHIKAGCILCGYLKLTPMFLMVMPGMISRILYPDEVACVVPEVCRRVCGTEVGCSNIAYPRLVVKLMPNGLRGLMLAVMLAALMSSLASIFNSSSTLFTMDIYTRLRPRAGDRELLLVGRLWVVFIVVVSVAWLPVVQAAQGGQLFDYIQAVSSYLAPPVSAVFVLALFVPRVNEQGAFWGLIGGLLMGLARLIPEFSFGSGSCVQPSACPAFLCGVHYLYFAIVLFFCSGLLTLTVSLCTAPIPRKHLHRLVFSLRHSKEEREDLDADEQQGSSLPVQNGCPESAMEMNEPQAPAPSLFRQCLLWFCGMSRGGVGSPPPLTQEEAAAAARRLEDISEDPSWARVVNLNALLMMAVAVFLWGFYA
Protocol: To test the effect of compounds on the glucose transport activity of SGLT2 transporters by measuring the amount of [^14C]-labeled glucose entering highly expressed Human-SGLT2 cells.
The cells stably expressing Human-SGLT2 used for the experiments were constructed by WuXi AppTec Shanghai. SGLT2 cells were plated in 96-well cell culture plates (Greiner) and cultured overnight at 5% CO2, 37° C.
as §1
Termination buffer: 10 mM 4-hydroxyethylpiperazine ethanesulfonic acid (HEPES), 1.2 mM magnesium chloride (MgCl2), 4.7 mM potassium chloride (KCl), 2.2 mM calcium chloride (CaCl2), 120 mM sodium chloride (NaCl) and 1 μM LX4211.
The compounds were diluted with 100% dimethyl sulfoxide (DMSO) at a starting concentration of 10 μM, 8 points of 5-fold serial gradient dilution was made.
6 μM [^14C]-labeled methyl α-D-glucopyranoside was prepared with experimental buffer.
Cells were treated with 49 μL of experimental buffer, 1 μL of gradient-diluted compound, and 50 μL of 6 μM [^14C]-isotope-labeled glucose solution at 37° C. for 2 hours.
The liquid in the wells was aspirated and the cells were washed 3 times with termination buffer.
The cells were lysed with 50 μL of 10% sodium hydroxide solution, and the cell lysate was aspirated into a scintillation tube, and 2 mL of scintillation solution was added.
Readings were taken with an isotope detector (Tricarb).
The data were calculated by GraphPad Prism 5.0 software using the formula: log (inhibitor) vs. response—Variable slope to obtain the IC50 values of the tested compounds, and the experimental results are shown in Table 5.

[3] = biological target: recombinant human dipeptidyl peptidase 4 (rhDPP4) (Homo sapiens, UniProt P27487); assay: rhDPP4 inhibitor screening experiment; assay type: biochemical; conditions: Gly-Pro-aminofluorescein substrate, 1 hour at room temperature
From the text: To evaluate the inhibitory activity of compounds against recombinant human dipeptidyl peptidase 4 (rhDPP4) by measuring the half-inhibitory concentration (IC50) values of the compounds. In the experiment, rhDPP4 was used to catalyze the generation of […] from substrate, the substrate was a luminescent precursor […], and the substrate and luciferase were reacted to generate a light signal, the intensity of the light signal was proportional to the enzyme activity.
• 1) The gradient diluted compounds (4-fold fold-dilution, 10 assay concentrations) were transferred 250 nL into a 384-well plate (PerkingElmer-6007299) using a non-contact nano-acoustic pipetting system (ECHO), and dimethyl sulfoxide (DMSO) concentration was 0.5% in the final reaction system. Blank control wells (containing DMSO, substrate and 10 mM Tris-HCl) and positive control wells (containing DMSO, substrate and rhDPP4) were set up. • 2) The pre-dispensed frozen buffer containing luciferase was removed and restored to room temperature, and then the substrate was added to configure a working solution with a substrate concentration of 20 μM. RhDPP4 was prepared as a working solution of 0.2 ng/mL using 10 mM Tris-HCl (pH 8.0) aqueous solution. • 3) 25 μL of working solution containing 20 μM substrate and 25 μL of working solution containing 0.2 ng/mL rhDPP4 were added to a 384-well plate with the addition of the compound, then the mixture was centrifuged for 30 s at 1000 rpm, the plate was sealed with aluminum foil sealing film and incubated for 1 hour at room temperature. • 4) The intensity of the light signal was detected by EnVision, a multifunctional microplate reader. The raw data were used to calculate the inhibition of rhDPP4 activity by the compound. % of inhibition activity=100−(compound well signal value−blank control well signal value)/(positive control well signal value−blank control well signal value)*100. • The percent of inhibition was imported into GraphPad Prism software for data processing to derive the corresponding dose-effect curves and to derive the IC50 values of the tested compounds.

[4] = system: SD Rat; assay: Oral glucose tolerance (OGTT) in rats; assay type: in vivo; conditions: male SD rats, single gavage dose, Canagliflozin 3 mg/kg, test compound 10 mg/kg
Protocol: The animals will be acclimatized in the animal room for 1 week after arrival at the facility.
The animals are fasted for 16 hours in the metabolic cage and given the drug or solvent (5 mL/kg) according to the table above, followed immediately by 50% glucose solution (2 g/kg, 4 mL/kg).
After 1 hour of glucose administration, the animals resumed feeding, and blood samples were collected at 0 min, 20 min, 40 min, 60 min, 90 min and 120 min for blood glucose measurement; urine at 0 to 24 hours was used for urinary glucose (mg/200 g) and urine volume test, respectively.
All values were expressed as mean values. Statistical analysis was performed using Graphpad Prism 6 single factor analysis of variance Tukey's multiple comparison test. The p-value less than 0.05 was considered statistically significant.

Chain of recombinant human dipeptidyl peptidase 4 (rhDPP4) (P27487 whole entry): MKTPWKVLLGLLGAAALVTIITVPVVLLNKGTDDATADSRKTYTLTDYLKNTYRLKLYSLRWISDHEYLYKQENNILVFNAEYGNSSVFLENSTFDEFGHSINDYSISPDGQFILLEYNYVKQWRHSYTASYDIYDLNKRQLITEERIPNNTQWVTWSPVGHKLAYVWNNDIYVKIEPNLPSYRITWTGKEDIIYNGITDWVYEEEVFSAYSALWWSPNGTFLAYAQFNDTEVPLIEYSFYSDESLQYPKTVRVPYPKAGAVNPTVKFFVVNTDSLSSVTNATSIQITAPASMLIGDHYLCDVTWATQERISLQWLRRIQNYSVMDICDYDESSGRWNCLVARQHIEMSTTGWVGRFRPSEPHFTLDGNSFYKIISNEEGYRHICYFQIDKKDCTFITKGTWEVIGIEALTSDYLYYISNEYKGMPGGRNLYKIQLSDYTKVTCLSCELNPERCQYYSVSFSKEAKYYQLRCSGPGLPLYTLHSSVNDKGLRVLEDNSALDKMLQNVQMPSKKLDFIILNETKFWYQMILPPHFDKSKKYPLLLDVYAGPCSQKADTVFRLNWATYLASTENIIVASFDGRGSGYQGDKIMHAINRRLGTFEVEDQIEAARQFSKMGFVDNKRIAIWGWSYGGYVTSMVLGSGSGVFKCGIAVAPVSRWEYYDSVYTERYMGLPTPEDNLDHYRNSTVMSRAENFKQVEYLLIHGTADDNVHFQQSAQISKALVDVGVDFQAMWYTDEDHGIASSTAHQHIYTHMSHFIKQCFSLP

CS[C@H]1O[C@@H](c2cccc(Cc3ccc(OC4CCN([C@H]5CO[C@H](c6cc(F)ccc6F)[C@@H](N)C5)C4)cc3)c2)[C@H](O)[C@@H](O)[C@@H]1O (some centres unmarked) [WX005]
IC50 [1]: 28.5 nM
IC50 [2]: 5.05 nM
IC50 [3]: 116 nM

CS[C@H]1O[C@@H](c2cc(Cc3ccc(O[C@@H]4CCN([C@H]5CO[C@H](c6cc(F)ccc6F)[C@@H](N)C5)C4)cc3)c(Cl)cc2C)[C@H](O)[C@@H](O)[C@@H]1O [WX002]
IC50 [1]: 187 nM
IC50 [2]: 4.84 nM
IC50 [3]: 104 nM

CS[C@H]1O[C@@H](c2ccc(Cl)c(Cc3ccc(O[C@@H]4CCN([C@H]5CO[C@H](c6cc(F)ccc6F)[C@@H](N)C5)C4)cc3)c2C)[C@H](O)[C@@H](O)[C@@H]1O [WX003]
IC50 [1]: 980 nM
IC50 [2]: 332 nM
IC50 [3]: 112 nM

COc1cc(F)c(Cc2ccc(O[C@@H]3CCN([C@H]4CO[C@H](c5cc(F)ccc5F)[C@@H](N)C4)C3)cc2)cc1[C@@H]1O[C@H](SC)[C@@H](O)[C@H](O)[C@H]1O [WX007]
IC50 [1]: 2070 nM
IC50 [2]: 19.7 nM
IC50 [3]: 32.5 nM

CS[C@H]1O[C@@H](c2cc(Cc3ccc(O[C@@H]4CCN([C@H]5CO[C@H](c6cc(F)ccc6F)[C@@H](N)C5)C4)cc3)c(F)cc2C)[C@H](O)[C@@H](O)[C@@H]1O [WX008]
IC50 [1]: 521 nM
IC50 [2]: 7.39 nM

CS[C@H]1O[C@@H](c2cc(C)c(Cl)c(Cc3ccc(OC4CCN([C@H]5CO[C@H](c6cc(F)ccc6F)[C@@H](N)C5)C4)cc3)c2)[C@H](O)[C@@H](O)[C@@H]1O (some centres unmarked) [WX004]
IC50 [1]: 33.3 nM
IC50 [2]: 5.96 nM
IC50 [3]: 166 nM

Cc1ccc([C@@H]2O[C@H](CO)[C@@H](O)[C@H](O)[C@H]2O)cc1Cc1ccc(-c2ccc(F)cc2)s1 [Canagliflozin, reference compound]
OGTT blood glucose levels AUC0-2hr ([4]; glucose 2 g/kg): 945 mmol/L/min
Urinary glucose level ([4]; urine 0 to 24 hours): 1317**** mg/200 gBW
Urine volume ([4]; urine 0 to 24 hours): 24.4*** mL/200 gBW
